Measurements reported in article PMC8309046 (Pharmaceutics, 2021).
Structures can show the parent of a compound that is named as a salt. Where two headings read alike, the source gives them in different places.

Columns and labels:
PptT [1] = molecular target: T1, PptT (Mycobacterium tuberculosis, UniProt O33336); experiment: LOPAC1280 single-point BpsA (indigoidine) end-point screen for PptT inhibitors; assay type: biochemical; details: for % Activity in PptT Screen / activity at 20 µM: single concentration (20 µM per Figure S4), 0.4 µM PptT, 0.6 µM apo-BpsA, 10 µM CoA, A590 relative to no-inhibitor positive controls
T1 sequence (O33336 whole entry): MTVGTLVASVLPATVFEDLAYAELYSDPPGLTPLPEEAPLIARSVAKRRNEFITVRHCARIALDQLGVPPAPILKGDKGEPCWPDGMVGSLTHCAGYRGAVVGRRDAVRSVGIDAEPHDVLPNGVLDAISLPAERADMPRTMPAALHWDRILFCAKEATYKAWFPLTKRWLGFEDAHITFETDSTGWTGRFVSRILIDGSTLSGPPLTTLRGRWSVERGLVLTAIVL

holo-BpsA = molecular target: T2, holo-BpsA (Streptomyces lavendulae, UniProt Q1MWN4); experiment: Counter-screen against pre-activated holo-BpsA (indigoidine synthesis); assay type: biochemical; details: for Inhibition of holo-BpsA: re-screen at higher concentration of 40 µM; for Inhibition of indigoidine synthesis by holo-BpsA in LOPAC1280 counter-screen: 0.6 µM holo-BpsA, no PPTase, screening concentration; for inhibition at 40 µM: read-out: Inhibition of holo-BpsA
T2 construct: made in house; host or cells: E. coli BL21(DE3) ΔentD
T2 sequence (Q1MWN4 1-1282): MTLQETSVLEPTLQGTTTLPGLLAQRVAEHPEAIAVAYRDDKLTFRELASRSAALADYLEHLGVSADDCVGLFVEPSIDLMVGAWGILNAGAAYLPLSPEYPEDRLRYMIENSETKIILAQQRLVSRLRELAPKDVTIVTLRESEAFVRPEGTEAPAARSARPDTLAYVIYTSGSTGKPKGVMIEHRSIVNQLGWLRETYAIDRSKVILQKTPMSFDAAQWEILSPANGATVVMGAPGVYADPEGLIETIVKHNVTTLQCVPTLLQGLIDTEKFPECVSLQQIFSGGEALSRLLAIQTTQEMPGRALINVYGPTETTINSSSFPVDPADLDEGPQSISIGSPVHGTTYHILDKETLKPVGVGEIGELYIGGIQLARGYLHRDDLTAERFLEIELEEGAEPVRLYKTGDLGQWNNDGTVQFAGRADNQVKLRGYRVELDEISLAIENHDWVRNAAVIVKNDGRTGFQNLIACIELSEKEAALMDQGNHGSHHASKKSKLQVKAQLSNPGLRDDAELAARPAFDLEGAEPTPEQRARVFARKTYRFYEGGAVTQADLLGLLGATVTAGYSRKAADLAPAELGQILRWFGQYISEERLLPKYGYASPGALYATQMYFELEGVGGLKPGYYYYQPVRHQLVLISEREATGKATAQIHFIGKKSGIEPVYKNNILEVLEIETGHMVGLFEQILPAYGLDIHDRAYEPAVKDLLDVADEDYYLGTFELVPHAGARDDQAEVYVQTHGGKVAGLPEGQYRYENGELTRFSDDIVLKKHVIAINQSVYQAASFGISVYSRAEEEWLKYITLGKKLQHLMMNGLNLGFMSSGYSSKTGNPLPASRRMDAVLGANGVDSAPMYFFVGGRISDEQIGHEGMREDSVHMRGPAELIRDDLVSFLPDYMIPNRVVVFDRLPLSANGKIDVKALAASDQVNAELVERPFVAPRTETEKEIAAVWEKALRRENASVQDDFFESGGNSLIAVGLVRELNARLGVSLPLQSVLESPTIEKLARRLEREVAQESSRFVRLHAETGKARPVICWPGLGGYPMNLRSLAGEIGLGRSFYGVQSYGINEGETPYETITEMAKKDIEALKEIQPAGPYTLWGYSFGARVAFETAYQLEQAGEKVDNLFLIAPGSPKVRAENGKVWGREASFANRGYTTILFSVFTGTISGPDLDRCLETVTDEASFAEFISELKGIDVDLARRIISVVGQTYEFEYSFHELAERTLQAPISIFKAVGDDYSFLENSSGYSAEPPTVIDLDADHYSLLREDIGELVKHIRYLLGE
Protocol: The Sigma-Aldrich LOPAC^1280 collection was first diluted to a working stock of […] per compound. To screen the collection, 88 reactions at a time were established in columns 1–11 of a standard 96 well-plate. Each was prepared from 30 µL of reaction mix comprising 50 mM Tris-Cl (pH 8.0), 0.01% (v/v) Triton-X, 10 mM MgCl2, 5 mM ATP, 5 mM L-glutamine and 10 µM CoA. Next, a CyBio liquid handler was used to pin 2 µL of compound into columns 2–11 and 2 µL of DMSO into column 1. To screen for PptT inhibitors, 10 µL of PPTase mix comprising a freshly-prepared stock of 0.4 µM PptT and 50 mM Tris-Cl (pH 8.0) was added to wells A1–C1 and columns 2–11 (see Supplementary Figure S1). To initiate indigoidine synthesis, 10 µL of 0.6 µM apo-BpsA in 50 mM Tris-Cl (pH 8.0) was added to each well. To screen for holo-BpsA inhibitors, an equivalent screening format was established only using 0.6 µM holo-BpsA and with no PPTase mix added. Each plate was then shaken at 1000 rpm for 10 s and incubated at room temperature for 1 h. Indigoidine was then resolubilised by the addition of 200 µL DMSO and incubation at 37 °C with shaking at 200 rpm for 0.5 h. A Perkin Elmer Enspire plate reader was then used to record the absorbance readings at 590 nm. The Python package Pandas was used to process the data, which was then visualised using the Python package Seaborn.

SARS-CoV-2 protease = details: LOPAC1280 screen, FRET-based reporter; cited from earlier work
PptT [2] = molecular target: T1, PptT; experiment: BpsA end-point dose-response assay of PptT inhibition (EC50); assay type: biochemical; details: for EC50: end-point assay, two-fold serial dilution from 40 µM, 0.4 µM PptT, 0.6 µM apo-BpsA, three independent replicates ± standard error
PptT [3] = molecular target: T1, PptT; assay type: biochemical; details: kinetic assay, serial dilution 200 µM to 0.2 µM; 0.4 µM PptT, 0.6 µM apo-BpsA
PPTases = system: PPTases; set-up: method as in PMID 20094656, PMID 21466506, PMID 33118808; details: cited from earlier work
M. tuberculosis PptT = system: M. tuberculosis PptT; set-up: method as in PMID 24963544; details: cited from earlier work
Sfp = system: Sfp; set-up: method as in PMID 24192555; details: cited from earlier work

| Compound | % Activity in PptT Screen (PptT [1]) [%] | Hit as SARS-CoV-2 protease inhibitor (SARS-CoV-2 protease) | EC50 (PptT [2]) [µM] | further results |
| --- | --- | --- | --- | --- |
| CCCCCCCCCCC/C=C\C(C)(C)/C=C\CCCC(=O)O [7,7-Dimethyl-(5z,8z)-eicosadienoic acid] | 49 | – | – | Inhibition of holo-BpsA (holo-BpsA): less than 15% |
| O=C1Nc2ccc(I)cc2/C1=C/c1cc(Br)c(O)c(Br)c1 [GW5074] | 43 | – | – | – |
| CC(C)(C)c1ccc(S(=O)(=O)/C=C/C#N)cc1 [Bay 11-7085] | 10 | strong protease inhibitors | 7.4 ± 0.4 | – |
| CN(C)CC/C=C1/c2ccccc2Sc2ccc(Cl)cc21 [chlorprothixene hydrochloride] | – | – | – | Registered as inhibitor of PptT in primary screen (result in words) (PptT [1]; LOPAC1280 primary screen): did not register as an inhibitor of PptT; Inhibition of indigoidine synthesis by holo-BpsA in LOPAC1280 counter-screen (holo-BpsA): inhibiting indigoidine synthesis |
| CC(=O)c1c(O)c(C)c(O)c(Cc2c(O)c3c(c(C(=O)/C=C/c4ccccc4)c2O)OC(C)(C)C=C3)c1O [Rottlerin] | – | – | – | activity at 20 µM (PptT [1]): 48% |
| O=Nc1ccc2oc(=O)ccc2c1 [6-Nitroso-1,2-benzopyrone] | 12 | strong protease inhibitors | 8.3 ± 1.7 | EC50 (PptT [3]): 4.4 ± 1.2 µM; Activity in vitro against PPTases (PPTases): activity in vitro against numerous PPTases; Inhibition of holo-BpsA (holo-BpsA): less than 15% |
| C[n+]1cc2c3c(ccc2c2ccc4cc5c(cc4c21)OCO5)OCO3 [Sanguinarine chloride] | – | strong protease inhibitors | – | activity at 20 µM (PptT [1]): 44%; inhibition at 40 µM (holo-BpsA): < 15%; Reported as inhibitor of M. tuberculosis PptT (M. tuberculosis PptT): inhibitor; Reported as inhibitor of Sfp (Sfp): inhibitor |
| N=C1Sc2ccccc2C2=NCCCN12 [PD 404, 182] | 35 | strong protease inhibitors | – | – |
| O=C(O)C1=CC(=C(c2ccc(O)c(C(=O)O)c2)c2ccc(O)c(C(=O)O)c2)C=CC1=O [Aurintricarboxylic acid] | – | strong protease inhibitors | 4.8 ± 0.9 | activity at 20 µM (PptT [1]): 32% |
| Nc1c(S(=O)(=O)O)cc(Nc2ccc(Nc3nc(Cl)nc(Nc4cccc(S(=O)(=O)O)c4)n3)c(S(=O)(=O)O)c2)c2c1C(=O)c1ccccc1C2=O [Reactive Blue 2] | – | – | – | activity at 20 µM (PptT [1]): 38% |
| O=c1c2ccccc2[se]n1-c1ccccc1 [ebselen] | – | – | – | Inhibition of indigoidine synthesis by holo-BpsA in LOPAC1280 counter-screen (holo-BpsA): inhibiting indigoidine synthesis |
| Tyrphostin AG 808 | 34 | – | – | – |
| COc1cc(/C=C(\C#N)C(=O)c2ccc(O)c(O)c2)cc(I)c1O [I-OMe-Tyrphostin AG 538] | 40 | – | – | – |
| O=C(O)c1cc[c]([Hg][Cl])cc1 [4-chloromercuribenzoic acid] | – | – | – | Inhibition of indigoidine synthesis by holo-BpsA in LOPAC1280 counter-screen (holo-BpsA): inhibiting indigoidine synthesis |
| Cc1ccc(C(=O)Nc2ccc(S(=O)(=O)O)c3cc(S(=O)(=O)O)cc(S(=O)(=O)O)c23)cc1NC(=O)c1cccc(NC(=O)Nc2cccc(C(=O)Nc3cc(C(=O)Nc4ccc(S(=O)(=O)O)c5cc(S(=O)(=O)O)cc(S(=O)(=O)O)c45)ccc3C)c2)c1 [suramin hexasodium] | – | – | – | Inhibition of indigoidine synthesis by holo-BpsA in LOPAC1280 counter-screen (holo-BpsA): inhibiting indigoidine synthesis |
| CCN(CC)C(=S)SSC(=S)N(CC)CC [Disulfiram] | – | strong protease inhibitors | 6 ± 1.5 | activity at 20 µM (PptT [1]): 9%; inhibition at 40 µM (holo-BpsA): < 15% |
| NC(Cc1cc(O)c(O)cc1O)C(=O)O (racemic) [6-Hydroxy-DL-DOPA] | 26 | strong protease inhibitors | – | Inhibition of holo-BpsA (holo-BpsA): less than 15% |
| N#C/C(=C\c1ccc(O)c(O)c1)C(=O)NCCCNC(=O)/C(C#N)=C/c1ccc(O)c(O)c1 [Tyrphostin AG 537] | 35 | – | 5.9 ± 0.5 | – |
| N#C/C(=C\c1ccc(O)c(O)c1)C(=O)c1ccc(O)c(O)c1 [Tyrphostin AG 538] | 24 | – | 6.4 ± 0.7 | – |
| Br.CCCN(CCC)C1CCc2cccc(O)c2C1 (stereo not shown) [8-hydroxy-DPAT hydrobromide] | – | – | – | Inhibitory activity on PptT in serial dilution (result in words) (PptT [2]; two-fold serial dilutions (40 µM to 0.3 µM) in PptT/apo-BpsA reaction mix): no inhibitory activity was observed |
| Br.CN=c1nc(-c2ccccc2)n(-c2ccccc2)s1 [SCH-202676 hydrobromide] | 0.7 | – | 5.9 ± 0.1 | Inhibition of holo-BpsA (holo-BpsA): noticeably inhibitory |
| COc1ccc2c(c1)CC[C@@H]1[C@@H]2CC[C@]2(C)[C@@H](NCCCCCCN3C(=O)C=CC3=O)CC[C@@H]12 [U-73122] | 44 | strong protease inhibitors | 8.1 ± 0.5 | – |
